Experimental data from patent publication US12240904B2, “Use of anti-PD-1 antibody in combination with famitinib in preparation of drug for treating tumors” (Jiangsu Hengrui Medicine Co., Ltd., priority 2018, dated 2025).
Like-named read-outs stand apart in the source and are kept apart here.

Tests used:
Mer = molecular target: T1, Mer (Homo sapiens, UniProt Q12866); assay: IC50Profiler in vitro kinase activity; assay type: biochemical; conditions: ATP 10 μM
T1 construct: purchased
T1 sequence (Q12866 21-999): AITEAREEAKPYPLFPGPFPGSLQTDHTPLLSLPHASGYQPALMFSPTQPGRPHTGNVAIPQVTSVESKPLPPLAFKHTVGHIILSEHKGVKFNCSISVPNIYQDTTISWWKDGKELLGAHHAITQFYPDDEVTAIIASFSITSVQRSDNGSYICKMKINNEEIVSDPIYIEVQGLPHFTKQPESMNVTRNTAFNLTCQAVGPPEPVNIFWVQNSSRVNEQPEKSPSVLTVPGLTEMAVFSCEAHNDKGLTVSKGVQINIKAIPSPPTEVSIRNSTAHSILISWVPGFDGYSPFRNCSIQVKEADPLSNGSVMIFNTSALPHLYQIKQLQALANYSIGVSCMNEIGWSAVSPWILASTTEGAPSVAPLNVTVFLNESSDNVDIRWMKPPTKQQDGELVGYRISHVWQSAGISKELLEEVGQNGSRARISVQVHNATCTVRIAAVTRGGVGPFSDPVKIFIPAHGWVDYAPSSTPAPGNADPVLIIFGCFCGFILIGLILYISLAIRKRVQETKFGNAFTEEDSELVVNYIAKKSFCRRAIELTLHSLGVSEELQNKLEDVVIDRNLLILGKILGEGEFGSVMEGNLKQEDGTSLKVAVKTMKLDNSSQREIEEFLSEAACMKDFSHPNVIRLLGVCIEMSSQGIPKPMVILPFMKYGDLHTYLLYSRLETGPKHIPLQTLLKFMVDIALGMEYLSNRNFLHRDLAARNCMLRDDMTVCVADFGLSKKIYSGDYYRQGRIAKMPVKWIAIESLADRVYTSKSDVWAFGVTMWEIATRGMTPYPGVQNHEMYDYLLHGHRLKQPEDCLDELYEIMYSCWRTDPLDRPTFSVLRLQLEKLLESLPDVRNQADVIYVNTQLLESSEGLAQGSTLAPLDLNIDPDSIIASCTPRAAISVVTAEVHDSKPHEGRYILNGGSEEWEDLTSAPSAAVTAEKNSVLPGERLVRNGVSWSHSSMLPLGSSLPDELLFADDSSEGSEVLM
Procedure: (§1) (1) Experimental Procedures for IC50Profiler™
(§2) Appropriate amounts of kinase and peptide substrates were separately mixed with different concentrations of famitinib malate (1 nM, 3 nM, 10 nM, 30 nM, 100 nM, 300 nM, 1 μM, 3 μM, 10 μM) and incubated for 60 min at room temperature. Magnesium acetate and [gamma-33P]-ATP were added to initiate the kinase-catalyzed reaction, and the reaction was carried out at room temperature for 40 minutes. After the reaction was finished, 3% phosphoric acid solution was added to terminate the reaction. 10 μL of the reaction mixture was taken and added onto a P30 filter membrane to be filtered. The membrane was washed with 75 mM phosphate buffer for 3 times and washed once with methanol to remove free [gamma-33P]-ATP. The protein was fixed, and the membrane was dried. The liquid scintillation analyzer was used to determine the amount of peptide substrate by counting the amount of 33P.

TYRO3 (Rse) = molecular target: T2, TYRO3 (Rse) (Homo sapiens, UniProt Q06418); assay: IC50Profiler in vitro kinase activity; assay type: biochemical; conditions: ATP 10 μM
T2 construct: purchased
T2 sequence (Q06418 41-890): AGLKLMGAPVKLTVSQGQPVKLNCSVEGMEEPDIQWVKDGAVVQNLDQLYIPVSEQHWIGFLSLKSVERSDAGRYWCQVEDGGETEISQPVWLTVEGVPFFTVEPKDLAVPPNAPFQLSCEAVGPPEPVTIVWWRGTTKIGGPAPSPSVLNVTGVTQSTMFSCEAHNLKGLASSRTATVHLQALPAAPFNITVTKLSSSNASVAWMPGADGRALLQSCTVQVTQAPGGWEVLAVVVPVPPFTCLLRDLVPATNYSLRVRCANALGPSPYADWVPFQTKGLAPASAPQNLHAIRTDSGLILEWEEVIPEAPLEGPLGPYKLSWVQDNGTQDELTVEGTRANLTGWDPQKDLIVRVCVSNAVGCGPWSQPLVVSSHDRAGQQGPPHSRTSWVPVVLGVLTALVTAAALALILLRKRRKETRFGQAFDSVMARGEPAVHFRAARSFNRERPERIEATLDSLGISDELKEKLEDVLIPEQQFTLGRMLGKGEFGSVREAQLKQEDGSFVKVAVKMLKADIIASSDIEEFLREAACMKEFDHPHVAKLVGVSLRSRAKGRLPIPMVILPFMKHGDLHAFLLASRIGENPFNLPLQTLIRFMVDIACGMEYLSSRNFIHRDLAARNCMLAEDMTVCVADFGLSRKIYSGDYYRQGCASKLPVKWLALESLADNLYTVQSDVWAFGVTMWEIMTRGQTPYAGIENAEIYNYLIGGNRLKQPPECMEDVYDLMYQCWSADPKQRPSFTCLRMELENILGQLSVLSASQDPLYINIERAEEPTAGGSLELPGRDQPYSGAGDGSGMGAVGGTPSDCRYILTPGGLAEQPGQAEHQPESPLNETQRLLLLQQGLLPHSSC
Procedure: as §1, §2

Axl = molecular target: T3, Axl (Homo sapiens, UniProt P30530); assay: IC50Profiler in vitro kinase activity; assay type: biochemical; conditions: ATP 10 μM
T3 construct: purchased
T3 sequence (P30530 26-894): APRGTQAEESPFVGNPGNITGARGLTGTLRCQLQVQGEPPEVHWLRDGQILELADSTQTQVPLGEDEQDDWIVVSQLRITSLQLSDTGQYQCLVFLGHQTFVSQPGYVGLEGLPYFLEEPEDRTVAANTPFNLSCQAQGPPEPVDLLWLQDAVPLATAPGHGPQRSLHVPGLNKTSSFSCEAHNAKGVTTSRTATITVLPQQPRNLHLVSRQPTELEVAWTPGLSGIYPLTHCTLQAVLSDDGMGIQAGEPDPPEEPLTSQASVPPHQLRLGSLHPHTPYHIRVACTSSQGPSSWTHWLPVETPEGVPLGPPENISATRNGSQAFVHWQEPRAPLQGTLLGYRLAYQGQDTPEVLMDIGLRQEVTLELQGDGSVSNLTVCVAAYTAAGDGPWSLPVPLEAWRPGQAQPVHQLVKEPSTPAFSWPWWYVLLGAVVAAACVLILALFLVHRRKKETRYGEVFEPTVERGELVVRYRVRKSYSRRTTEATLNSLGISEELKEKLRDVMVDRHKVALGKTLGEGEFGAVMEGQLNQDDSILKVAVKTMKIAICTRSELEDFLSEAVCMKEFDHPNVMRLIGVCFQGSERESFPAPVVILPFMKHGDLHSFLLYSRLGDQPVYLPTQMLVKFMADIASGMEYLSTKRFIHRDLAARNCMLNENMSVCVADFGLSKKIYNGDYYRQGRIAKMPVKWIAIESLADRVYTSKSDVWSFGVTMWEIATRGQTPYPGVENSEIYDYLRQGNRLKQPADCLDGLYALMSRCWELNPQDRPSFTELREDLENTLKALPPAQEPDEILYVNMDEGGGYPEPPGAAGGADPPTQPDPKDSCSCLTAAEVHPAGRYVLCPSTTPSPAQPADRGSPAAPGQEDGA
Procedure: as §1, §2

[1] = clinical study, pharmacokinetics of Compound B; assay type: in vivo, human; conditions: for AUC: human, blood, oral
Text: In the present disclosure, “AUC” refers to the area surrounded by the pharmacokinetic blood drug concentration curve versus time axis. This parameter is an important indicator for evaluating the degree of drug absorption, reflecting the exposure profiles of the drug in vivo. Since the blood drug concentration in pharmacokinetic studies can only be observed up to a certain time point t, AUC can be expressed in the following two means: AUC (0-t) and AUC (0-∞), wherein AUC (0-t) is derived from the trapezoidal area, and AUC (0-∞) is calculated by the formula: AUC (0-∞)=AUC (0-t)+end point concentration/end point elimination rate. The AUC mentioned in the present application refers to the averaged AUC0-24 of the patient reaching a steady state after a single administration or multiple administrations, preferably the averaged AUC0-24 of the patient reaching a steady state after multiple administrations (i.e. AUCss).
Compound A: intravenous injection, 200 mg, once every 3 weeks, 1 cycle every 3 weeks; Compound B: 20 mg or 15 mg, oral administration, once a day.
Among the 12 subjects who participated in the pharmacokinetic study, PK blood was collected from 9 subjects.

kidney cancer = conditions: Compound B 25 mg, q.d., alone; cited from earlier work
[2] = test system: advanced/metastatic colorectal cancer; conditions: 25 mg, once a day, cited from earlier work
[3] = administration alone, 20 mg (n = 8)
[4] = co-administration with Compound A, 20 mg (n = 9)

With CCN(CC)CCN1CCc2[nH]c(/C=C3\C(=O)Nc4ccc(F)cc43)c(C)c2C1=O [Compound B, famitinib malate] the IC50 (Mer) was 4.35 nM, the IC50 (TYRO3 (Rse)) was 326 nM and the IC50 (Axl) was 36.8 nM. For the same compound, the “Css, max, Geomean (Geometric % CV)” value [1, 3] was 59.9 (44.4) ng/mL, the “Css, max, Mean ± SD” value [1, 3] was 64.3 ± 23.8 ng/mL and the “Css, min, Geomean (Geometric CV %)” value [1, 3] was 29.8 (56.6) ng/mL. The “Css, min, Mean ± SD” value [1, 3] was 33.2 ± 14.6 ng/mL, the “Tss, max, Median (Min, Max)” value [1, 3] was 6 (2, 8) h and the “exposure amount of Compound B compared to administration alone” value ([1]; co-administrated with Compound A) was “increased”. The “Css, max, Geomean (Geometric % CV)” value [1, 4] was 71.6 (24.3) ng/mL, the “Css, max, Mean ± SD” value [1, 4] was 73.4 ± 16.8 ng/mL and the “Css, min, Geomean (Geometric CV %)” value [1, 4] was 36.6 (28.8) ng/mL. The “Css, min, Mean ± SD” value [1, 4] was 38.0 ± 11.0 ng/mL, the “Tss, max, Median (Min, Max)” value [1, 4] was 6 (4, 10) h and the AUC ([1]; 20 mg, administration alone, 20 mg (n = 8), read-out: AUCss, Geomean (Geometric % CV)) was 1090 ng·h/mL. It also gave an AUC ([1]; 20 mg, administration alone, 20 mg (n = 8), read-out: AUCss, Mean ± SD) of 1180 ± 465 ng·h/mL, an AUC ([1]; co-administration with Compound A, 20 mg (n = 9), read-out: AUCss, Geomean (Geometric % CV)) of 1330 ng·h/mL and an AUC ([1]; co-administration with Compound A, 20 mg (n = 9), read-out: AUCss, Mean ± SD) of 1360 ± 300 ng·h/mL. The ORR (kidney cancer) was 36%.
In the case of CCN(CC)CCN1CCc2[nH]c(/C=C3\C(=O)Nc4ccc(F)cc43)c(C)c2C1=O [famitinib], the “improvement of progression-free survival (PFS) compared to the placebo group” value ([2]; period of 42 days) is listed as 1.3 months, the “HR (PFS vs placebo)” value [2] is listed as 0.596 and the adverse events [2] is listed as “adverse events are under control”. For the same compound, the “disease control rate (DCR)” value [2] was 59.8%, the “median survival (mOS)” value [2] was 7.5 months and the “objective remission rate (ORR)” value [2] was 2.2%.
